In patent publication US11547715B2, “Use of chlorogenic acid in preparation of drug for treating chordoma” (SICHUAN JIUZHANG BIOLOGICAL SCIENCE AND TECHNOLOGY CO., LTD, priority 2017, dated 2023):

Experiments:
[1] = test system: MDR1 expression in human chordoma CM-319 cells; details: RT-PCR, FIG. 1
Description: MDR1 primer (Shanghai Bioengineering Co., Ltd.); RNA extraction kit (Jiangsu biyuntian); reverse transcription synthesis kit (Jiangsu biyuntian); chlorogenic acid API (purity 99.6%, Sichuan Jiuzhang Biotechnology Co., Ltd.).
In this example, RT-PCR was used to detect the effect of different experimental groups on the expression of MDR1 in human chordoma CM-319 cells. CM-319 cells cultured in 6-well plate was collected, and RNA extraction kit was used to extract total RNA in cells, then reverse transcription synthesis kit was used to transcribe the first strand of cDNA. After that, PCR amplification reaction was used to detect the expression level of target genes in different experimental groups.

[2] = test system: human chordoma CM-319 cells; assay: CCK-8 proliferation inhibition of human chordoma CM-319 cells; format: cell-based
Description: Drug: chlorogenic acid raw material (99.6% purity, Sichuan Jiuzhang Biotechnology Co., Ltd.) Cell line: human chordoma cell line CM-319 cells (West China Hospital, Sichuan University)
Human chordoma CM-319 cells growing in logarithmic phase was collected, and the cell concentration was adjusted to 6×10^5 cells/ml with 1640 medium. 100 μL suspension of above cells was taken out and inoculated into 96 well plate, and each experimental group has three replicate wells. To each well, was added 100 μL corresponding drugs, so that the final concentration of chlorogenic acid in the experimental group is 10 μmol/L, 20 μmol/L, and 40 μmol/L, respectively, and then the plate was further cultured for 24 hours. In the negative control group, no drug was added, and only the same volume of 100 μL culture medium was added. After 24 hours, 10 μL CCK-8 solution was added to each well, and the culture plate was incubated in the incubator for another one hour. The absorbance of each well was measured at 450 nm by ELISA. The inhibition of chlorogenic acid on human chordoma CM-319 cells was calculated at various concentrations by using the growth inhibition rate=(absorbance of the negative control group at 450 nm—absorbance of the experimental group at 450 nm)/absorbance of the negative control group at 450 nm×100%.

[3] = different concentrations (10, 20, 40 μmol/L)

With `O=C(/C=C/c1ccc(O)c(O)c1)O[C@@H]1C[C@](O)(C(=O)O)C[C@@H](O)[C@H]1O` [chlorogenic acid] the “expression level of MDR1 in CM-319 cells (in words)” value [1, 3] was “reduce the expression level of MDR1 in CM-319 cells to various degrees”, the “expression level of drug-resistant genes (MDR1) in cells (in words)” value ([1]; high concentration 40 μmol/L, compared with other groups) was “significantly reduce the expression level of drug-resistant genes” and the inhibition at 10 µM ([2]; Homo sapiens, Group 1: chlorogenic acid 10 μmol/L, 24 hours, CCK-8, read-out: Inhibitory rate of cells (%)) was 36.8 ± 5.12%. The inhibition at 20 µM ([2]; Homo sapiens, Group 2: chlorogenic acid 20 μmol/L, 24 hours, CCK-8, read-out: Inhibitory rate of cells (%)) was 48.4 ± 6.11%, the inhibition at 40 µM ([2]; Homo sapiens, Group 3: chlorogenic acid 40 μmol/L, 24 hours, CCK-8, read-out: Inhibitory rate of cells (%)) was 55.5 ± 3.78% and the “inhibition of proliferation of human chordoma cells (in words)” value [2, 3] was “strongly inhibit human chordoma cells”.
